Biological target: D(3) dopamine receptor (Rattus norvegicus) (UniProt P19020)
Experiment: Saturable binding was tested dopamine receptor D3 in rat striatal membrane homogenate
Format: cell membranes
Settings: Striatum

D(3) dopamine receptor (Rattus norvegicus), sequence (P19020 whole entry): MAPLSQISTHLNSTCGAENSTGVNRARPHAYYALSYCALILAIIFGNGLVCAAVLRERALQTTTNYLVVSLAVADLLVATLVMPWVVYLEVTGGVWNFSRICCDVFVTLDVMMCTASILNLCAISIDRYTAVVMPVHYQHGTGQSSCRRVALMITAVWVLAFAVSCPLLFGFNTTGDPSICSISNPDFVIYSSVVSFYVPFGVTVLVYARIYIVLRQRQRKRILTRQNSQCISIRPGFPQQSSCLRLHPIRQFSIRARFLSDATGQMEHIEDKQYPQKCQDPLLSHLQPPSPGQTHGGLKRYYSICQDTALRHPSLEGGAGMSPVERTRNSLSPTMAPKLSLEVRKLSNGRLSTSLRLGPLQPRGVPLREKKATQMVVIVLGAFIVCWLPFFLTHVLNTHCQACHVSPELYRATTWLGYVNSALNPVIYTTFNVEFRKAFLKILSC

SMILES: CCCN(C/C=C/I)C1CCc2ccc(O)cc2C1 (stereo unspecified)
- Bmax (fM (mg of protein)-1): 240
